Assay results: patent publication US20200323843A1 (IRR, Inc., priority 2010, published 2020)
Entries after “also recorded” stand apart in the source; their conditions may differ. Where two headings read alike, the source gives them in different places.

Experiments:
influenza [1] = conditions: 10 days; levocetirizine 5 mg po and/or montelukast 10 mg po
Source text: A cohort of 20 patients between the ages of 15-30 years of age (and no other co-morbid disease processes), presenting with classic symptoms of influenza: headache, fever, dry cough and extreme fatigue, are identified and divided into four treatment groups. The first group (CONTROL) receives two placebo tablet(s) each administered together at the same time each day for a period of 10 days.
Laboratory data shall consist of a complete blood count, comprehensive metabolic panel, C-reactive protein, T and B cell lymphocyte panel, chest x-ray, and viral and aerobic cultures of the airway. Vital signs will be logged at the initial visit and the patient's fever profile tracked over the interim. Onset, duration and intensity of symptoms (headache, fever, cough, fatigue) will be logged in addition to the time to resolution of symptoms (time zero—first dose of medication(s)). Second endpoint data will include the time it takes to return to full activity, work/school.

[2] = tested on: histamine induced wheal and flare; conditions: cited from earlier work
human rhinovirus = conditions: airway epithelial cells; cited from earlier work
[3] = tested on: eosinophil migration, IL-4, IL-6, IL-8; conditions: cited from earlier work
[4] = cited from earlier work
[5] = cited from earlier work; remark: listed apart in the source
[6] = cited from earlier work; remark: listed apart in the source
influenza [7] = conditions: patients with influenza; cited from earlier work

SMILES: O=C(O)COCCN1CCN([C@H](c2ccccc2)c2ccc(Cl)cc2)CC1 [Levocetirizine, levocetirizine]
- influenza symptoms (influenza [1]): reduced fever profile and overall feeling of fatigue, without significant foreshortening of the disease process
- potency among the five modern generation antihistamines ([2]; histamine induced wheal and flare data): most potent
- effectiveness compared with fexofenadine ([2]; levocetirizine 5 mg per day vs fexofenadine 180 mg per day): more effective
- rhinovirus-induced ICAM-1 and cytokine expression and viral replication (human rhinovirus): inhibits
- eosinophil migration [3]: decrease
- inflammatory mediators, IL-4, IL-6, and IL-8 [3]: decrease
- Steady-state level ([4]; in vivo): 40 h
- time to steady state level ([4]; in vivo): 40 h
- principal side effect ([5]; at higher doses): Sedation
- dose that can be safely administered ([5]; humans): up to 30 mg/day

SMILES: CC(C)(O)c1ccccc1CC[C@@H](SCC1(CC(=O)O)CC1)c1cccc(/C=C/c2ccc3ccc(Cl)cc3n2)c1 [Montelukast, montelukast]
- plasma concentration area under the curve profile, IV vs oral tablet ([4]; IV 7 mg vs approved 10 mg oral tablet): comparable
- drug interactions with warfarin, theophylline, digoxin, terfenadine, oral contraceptives, or prednisone ([4]; in vivo, po): no drug interactions
- absorption ([4]; in vivo): rapidly absorbed
- linear pharmacokinetics, up to dose ([4]; in vivo): ≤ 50 mg
- time to peak plasma concentration ([4]; in vivo): 3 to 4 h
- oral bioavailability and Cmax, effect of a standard meal ([4]; standard meal): not affected
- dose administered without clinically important adverse experiences ([6]; adult patients, 22 weeks): up to 200 mg/day
- dose administered without clinically important adverse experiences ([6]; short-term studies, approximately one week): up to 900 mg/day

SMILES: CCOC(=O)C1=C[C@@H](OC(CC)CC)[C@H](NC(C)=O)[C@@H](N)C1 [oseltamivir]
- influenza related lower respiratory tract infections/complications (influenza [7]): has not been shown to decrease; also recorded: did not appear to reduce
